Patent US20190290620A1, “APPLICATIONS OF NOVEL THIAZOLE DERIVATIVE IN TREATING INFLAMMATORY BOWEL DISEASES” (EAST CHINA UNIVERSITY OF SCIENCE AND TECHNOLOGY, priority 2016, published 2019)
Marks after values point to notes of the source that are not given here.

Test system: TNBS-induced ulcerative colitis model mice
Assay: TNBS-induced mice ulcerative colitis model
Assay type: in vivo, BALB/c male mice
Set-up: key to Scores of gross morphological damages: 0 = no adhesion/ulcer/inflammation, 4+ = severe ulcers (+1 per cm)
Description: BALB/c male mice (each 18-22 g) of SPF level were purchased from Shanghai Slack Laboratory Animal Co., Ltd. and were used in experiments after adaptive feeding for 7 days.
BALB/c male mice were kept in an animal cage (daylight and darkness of 12 hours, respectively) at a temperature of 20-25° C. and relative humidity of 50-60%, free access to food and water.
Mice were randomly divided into normal control group, trinitrobenzenesulfonic acid (TNBS) model group, drug treatment group and positive drug control group (sulfasalazine 500 mg/kg).
All of the mice in model group and administration group were shaved in the abdomen (area 2×2 cm) and sensitized with 1% TNBS (dissolved in 50% ethanol). On the 7th day, the mice were fasted, but not water. After 24 hours, the mice were anesthetized through intraperitoneal injection of 0.1 ml of 10% chloral hydrate and 2% TNBS was used for lavation to establish a mouse model of ulcerative colitis. A gavage needle for rat was inserted into the colon of a mouse, the tip of the needle was about 3˜3.5 cm away from the anus, and 0.1 ml of modeling solution (5% TNBS and deionized water were mixed at a volume ratio of 4:1, and the obtained solution was mixed with absolute ethanol at a volume ratio of 1:1, so as to obtain the modeling solution) was injected. The mice were put back into the cage and wake up naturally. The mice in the normal control group were injected with 0.12 ml of solvent (50% ethanol solution) by the same manner.
Administration was started on the day of modeling (using 0.5% sodium carboxymethylcellulose, CMC-Na) for 7 consecutive days.
At 24 hours after the last administration, the mice were sacrificed by cervical dislocation, the peritoneum was cut open, and the whole colon was taken. The intestine was cut longitudinally along the mesenteric margin, rinsed with ice physiological saline, placed on ice, and the pathological changes of the colon were observed. The fat and mesentery were removed, the water was blotted with filter paper, the weight of the colon was weighed and the length was measured. The colon was fixed in 4% formaldehyde for more than 24 hours, dehydrated, paraffin-embedded and H&E stained, and the pathological sections were observed.
The mice were observed and recorded daily for mental state, fur color, and activities. The mice was weighed daily and observed for the stool traits. The body weight index according to the disease activity index (DAI) is as follows:
After the colon of a mouse was removed, the weight of the colon was measured with a precision electronic balance, the length was measured with a vernier caliper, and the weight/length ratio of the colon was calculated.
The criteria for scores were: no adhesion, no ulcer, no inflammation, 0 points; mild adhesion, local congestion, no ulcer, 1 point; severe adhesion, 1 ulcer (area less than 1 cm), no obvious inflammation, 2 points; more than 1 ulcers (area less than 1 cm) with inflammation, 3 points; 2 severe ulcers (area greater than 1 cm) with inflammation, 4 points; and 1 point for each 1 cm increase in ulcer area.
Pathological changes of colon tissue were observed under light microscope, and the scores were recorded. The criteria for scores are as follows:
1) Epithelial cells: normal morphology, 0 points; loss of goblet cells, 1 point; large loss of goblet cells, 2 points; loss of crypt cells, 3 points; large loss of crypt cells, 4 points.
2) Infiltration of inflammatory cells: no infiltration, 0 points; infiltration in the basal layer of the crypt, 1 point; infiltration to the muscular layer of the mucosa, 2 points; infiltration to the muscular layer of the mucosa with mucosal thickening and obvious edema, 3 points; infiltration to the submucosal layer, 4 points.
Data were expressed as […] (mean±S.E.M.), data were analyzed using SPSS statistical software, and one-way ANOVA and Tukey's HSD post hoc test were used for comparison between groups. p<0.05 was considered statistically significant.

[1] = 24 hours after last administration, ig 7 days, compound 20 mg/kg, sulfasalazine 500 mg/kg

O=C(O)c1cc(/N=N/c2ccc(S(=O)(=O)Nc3ccccn3)cc2)ccc1O [sulfasalazine, reference compound]
Score (body weight index according to the disease activity index, DAI) (0-4 points by weight decrease, ig 7 days, compound 20 mg/kg, sulfasalazine 500 mg/kg): 1
Length of the colon [1]: 5.814 ± 0.465 cm
Weight of the colon [1]: 0.145 ± 0.018 g
diarrhea of the mice (general condition) (FIG. 2, TNBS-mediated UC model BALB/c mice, Compound 16 in three different dosage groups, sulfasalazine control group): mild
death of mice (FIG. 2, on the 8th day of the experiment, model group mortality about 50%): only one mouse died
extent of ulcer lesions of colon and visceral adhesions (FIG. 3, compound 312 at 5 mg/kg, 20 mg/kg, 50 mg/kg and positive drugs, vs model group): can improve the extent of ulcer lesions of colon and visceral adhesions
histopathology of colon (HE staining, mucosal integrity / lesions) (FIG. 4, compared with the model group): largely reversed
Histopathology scores (H&E colon sections, epithelial cells and inflammatory cell infiltration points, ig 7 days, compound 20 mg/kg, sulfasalazine 500 mg/kg): 1.71 ± 0.69
Scores of gross morphological damages (colon adhesion, ulceration, inflammation points, ig 7 days, compound 20 mg/kg, sulfasalazine 500 mg/kg): 0.81 ± 0.69
weight/length ratio (average) of colon (colon weight (g) / length (cm), ig 7 days, compound 20 mg/kg, sulfasalazine 500 mg/kg): 0.025#
Ratio of weight loss (ig daily for 7 days from day of modeling, compound 20 mg/kg, positive drug sulfasalazine 500 mg/kg, 10 mice per group): 1.54 ± 3.72
